These molecules were tested against T1, hPRDM9 (amino acids 195-385) (Homo sapiens, UniProt Q9NQV7) (assay: PRDM9 biochemical assay (radiometric, 3[H] methyl transfer from SAM to biotinylated histone H3 peptide)). Settings: 1 nM hPRDM9, 1 μM biotinylated H3(1-25)K4 peptide, 5 μM 3[H]-SAM, 55 μM un-labeled SAM, 25° C., 30 minutes.
T1 construct: 1.25 nM hPRDM9 (amino acids 195-385)
T1 sequence (Q9NQV7 195-385): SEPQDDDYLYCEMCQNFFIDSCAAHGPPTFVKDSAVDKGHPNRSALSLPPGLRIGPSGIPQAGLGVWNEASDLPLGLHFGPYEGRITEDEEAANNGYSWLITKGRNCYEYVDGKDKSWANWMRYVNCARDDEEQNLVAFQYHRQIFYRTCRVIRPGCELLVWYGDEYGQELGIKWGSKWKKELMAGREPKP
Method: The PRDM9 biochemical assay was carried out using a radiometric format involving the transfer of ^3[H] methyl group from S-adenosyl methionine (SAM) to a biotinylated histone H3 peptide (H3(1-25)K4). 10 mM compounds in DMSO were diluted 20 fold in assay buffer (10 mM Tris-HCl, pH 8.5, 10 mM DTT, and 0.01% Triton X-100) before adding […] to a well in a 384 well polypropylene microplate plate and adding 8 μl of reaction mix (1.25 nM hPRDM9 (amino acids 195-385), 1.25 μM biotinylated H3 peptide in assay buffer). The ^3[H]-SAM and cold SAM stock solutions were diluted to 50 μM and 550 μM respectively in assay buffer before aliquoting 1 μl of 50 μM ^3[H]-SAM, 550 μM SAM into each well to initiate the reaction. The assay was performed at 25° C. at the final concentrations of 1 nM hPRDM9, 1 μM peptide, 5 μM ^3[H]-SAM, and 55 μM un-labeled SAM in assay buffer. The reaction was quenched after 30 minutes by adding 25 μl 7.5 M Guanidine-HCl. Quenched reactions were transferred to streptavidin coated Flashplates, diluted two fold in assay buffer, incubated for 1 hour, and read on a Perkin Elmer Topcount instrument. Compound activity was expressed relative to activity of 0.5% (v/v) DMSO treated samples and fit to a four parameter logistic equation to determine IC50 values.
Work on COc1cc(OC)cc(-c2noc(N3CCN(CCO)C4(CCN(c5ccnc(C)c5)CC4)C3)n2)c1 [Compound 98] yielded an IC50 of 0.095 µM. COc1cc(OC)cc(-c2noc(N3CCN(S(C)(=O)=O)C4(CCN(c5ccnc(C)c5)CC4)C3)n2)c1 [Compound 99] gave an IC50 of 0.07 µM. Work on COc1cc(OC)cc(-c2noc(N3CCN(c4ccccc4)C4(CCN(c5ccnc(C)c5)CC4)C3)n2)c1 [Compound 100] yielded an IC50 of 0.14 µM. In the case of COc1cc(OC)cc(-c2noc(N3CCN(C(=O)N(C)C)C4(CCN(c5ccnc(C)c5)CC4)C3)n2)c1 [Compound 101], the IC50 is reported as 0.45 µM. COc1cc(OC)cc(-c2noc(N3CCN(C)C4(CCN(c5ccnc6ccccc56)CC4)C3)n2)c1 [Compound 102] was tested, and the IC50 was 4.4 µM. Cc1cc(N2CC3(CCCN(c4nc(-c5cc(Cl)cc(Cl)c5)no4)C3)C2)ccn1 [Compound 116, 3-(3,5-dichlorophenyl)-5-(2-(2-methylpyridin-4-yl)-2,6-diazaspiro[3.5]nonan-6-yl)-1,2,4-oxadiazole] showed an IC50 of 0.072 µM. Cc1cc(N2CC3(CCCN(c4nc(-c5cccc(Br)c5)no4)C3)C2)ccn1 [Compound 117] gave an IC50 of 2 µM. For Cc1cc(N2CC3(CCCN(c4nc(-c5cc(Cl)cc(Cl)c5)co4)C3)C2)ccn1 [Compound 118], the IC50 was 16.6 µM. Cc1cc(N2CC3(C2)CN(c2nc(-c4cc(Cl)cc(Cl)c4)no2)CCO3)ccn1 [Compound 119] showed an IC50 of 0.3 µM. Cc1cc(N2CC3(CCCN(c4cncc(-c5cc(Cl)cc(Cl)c5)n4)C3)C2)ccn1 [Compound 120] showed an IC50 of 12.2 µM. Cc1cc(N2CC3(CCCN(c4onc(-c5cc(Cl)cc(Cl)c5)c4Br)C3)C2)ccn1 [Compound 121, 4-bromo-3-(3,5-dichlorophenyl)-5-(2-(2-methylpyridin-4-yl)-2,6-diazaspiro[3.5]nonan-6-yl)isoxazole] gave an IC50 of 13.7 µM. Cc1cc(N2CC3(CCCN(c4onc(-c5cc(Cl)cc(Cl)c5)c4-c4ccoc4)C3)C2)ccn1 [Compound 122, 3-(3,5-dichlorophenyl)-4-(furan-3-yl)-5-(2-(2-methylpyridin-4-yl)-2,6-diazaspiro[3.5]nonan-6-yl)isoxazole] was tested, and the IC50 was 30.6 µM. Cc1cc(N2CC3(CCCN(c4onc(-c5cc(Cl)cc(Cl)c5)c4-c4ccc(N)cc4)C3)C2)ccn1 [Compound 123] gave an IC50 of 6.67 µM. Work on COc1ccccc1-c1c(-c2cc(Cl)cc(Cl)c2)noc1N1CCCC2(CN(c3ccnc(C)c3)C2)C1 [Compound 124] yielded an IC50 of 17.6 µM. COc1ccc(-c2c(-c3cc(Cl)cc(Cl)c3)noc2N2CCCC3(CN(c4ccnc(C)c4)C3)C2)c(OC)c1 [Compound 125] was tested, and the IC50 was 25.1 µM. Cc1cc(N2CC3(CCCN(c4ccn(-c5cc(Cl)cc(Cl)c5)n4)C3)C2)ccn1 [Compound 126, 6-(1-(3,5-dichlorophenyl)-1H-pyrazol-3-yl)-2-(2-methylpyridin-4-yl)-2,6-diazaspiro[3.5]nonane] was tested, and the IC50 was 11.1 µM. Molecule Cc1cc(N2CC3(CCCN(CC(C)C(=O)c4cc(Cl)cc(Cl)c4)C3)C2)ccn1 (centres unmarked) [Compound 127, 1-(3,5-dichlorophenyl)-2-methyl-3-(2-(2-methylpyridin-4-yl)-2,6-diazaspiro[3.5]nonan-6-yl)propan-1-one] has an IC50 of 26.9 µM. Cc1cc(N2CC3(CCCN(c4cc(-c5cccc(F)c5F)n[nH]4)C3)C2)ccn1 [Compound 128, 6-(3-(2,3-difluorophenyl)-1H-pyrazol-5-yl)-2-(2-methylpyridin-4-yl)-2,6-diazaspiro[3.5]nonane] showed an IC50 of 23.7 µM. Work on COC(=O)c1cccc(-c2cc(N3CCCC4(CN(c5ccnc(C)c5)C4)C3)on2)c1 [Compound 129, methyl 3-(5-(2-(2-methylpyridin-4-yl)-2,6-diazaspiro[3.5]nonan-6-yl)isoxazol-3-yl)benzoate] yielded an IC50 of 19.1 µM. COC(=O)c1cccc(-c2cc(N3CCCC4(CN(c5ccnc(C)c5)C4)C3)[nH]n2)c1 [Compound 130, methyl 3-(5-(2-(2-methylpyridin-4-yl)-2,6-diazaspiro[3.5]nonan-6-yl)-1H-pyrazol-3-yl)benzoate] showed an IC50 of 24.3 µM. With Cc1cc(N2CC3(CCCN(c4cc(-c5ccc(F)c(F)c5)n[nH]4)C3)C2)ccn1 [Compound 131, 6-(3-(3,4-difluorophenyl)-1H-pyrazol-5-yl)-2-(2-methylpyridin-4-yl)-2,6-diazaspiro[3.5]nonane] the IC50 was 23.1 µM. Molecule Cc1cc(N2CC3(CCCN(c4ccnc(-c5cc(Cl)cc(Cl)c5)c4)C3)C2)ccn1 [Compound 132, 6-(2-(3,5-dichlorophenyl)pyridin-4-yl)-2-(2-methylpyridin-4-yl)-2,6-diazaspiro[3.5]nonane] has an IC50 of 5.46 µM. Work on Cc1cc(N2CC3(CCCN(c4cc(-c5cccc(F)c5F)no4)C3)C2)ccn1 [Compound 133, 3-(2,3-difluorophenyl)-5-(2-(2-methylpyridin-4-yl)-2,6-diazaspiro[3.5]nonan-6-yl)isoxazole] yielded an IC50 of 17 µM. Cc1cc(N2CC3(CCCN(c4ccc5c(Cl)cc(Cl)cc5n4)C3)C2)ccn1 [Compound 134, 5,7-dichloro-2-(2-(2-methylpyridin-4-yl)-2,6-diazaspiro[3.5]nonan-6-yl)quinoline] gave an IC50 of 34.6 µM. Cc1cc(N2CC3(CCCN(c4cc(-c5ccc(F)c(C(F)(F)F)c5)n[nH]4)C3)C2)ccn1 [Compound 135, 6-(3-(4-fluoro-3-(trifluoromethyl)phenyl)-1H-pyrazol-5-yl)-2-(2-methylpyridin-4-yl)-2,6-diazaspiro[3.5]nonane] gave an IC50 of 21.1 µM. Molecule Cc1cc(N2CC3(CCCN(c4cc(-c5cc(F)cc(Cl)c5)n[nH]4)C3)C2)ccn1 [Compound 136, 6-(3-(3-chloro-5-fluorophenyl)-1H-pyrazol-5-yl)-2-(2-methylpyridin-4-yl)-2,6-diazaspiro[3.5]nonane] has an IC50 of 16.5 µM. In the case of Cc1cc(N2CC3(CCCN(c4cc(-c5cc(Cl)cc(Cl)c5)ccn4)C3)C2)ccn1 [Compound 137, 6-(4-(3,5-dichlorophenyl)pyridin-2-yl)-2-(2-methylpyridin-4-yl)-2,6-diazaspiro[3.5]nonane], the IC50 is reported as 21.5 µM. Cc1cc(N2CC3(CCCN(c4nc(-c5ccccc5)no4)C3)C2)ccn1 [Compound 138, 5-(2-(2-methylpyridin-4-yl)-2,6-diazaspiro[3.5]nonan-6-yl)-3-phenyl-1,2,4-oxadiazole] gave an IC50 of 4.8 µM. Work on COc1cc(OC)cc(-c2noc(N3CCOC4(CN(c5ccnc(C)c5)C4)C3)n2)c1 [Compound 139] yielded an IC50 of 0.393 µM. COc1cccc(-c2noc(N3CCCC4(CN(c5ccnc(C)c5)C4)C3)n2)c1 [Compound 142] was tested, and the IC50 was 0.203 µM. Cc1cc(N2CC3(CCCN(c4nc(Cc5ccc(F)cc5)no4)C3)C2)ccn1 [Compound 143] was tested, and the IC50 was ≥ 50 µM. In the case of Cc1cc(N2CC3(CCCN(c4nc(-c5ccc(Cl)cc5)no4)C3)C2)ccn1 [Compound 144], the IC50 is reported as 42.3 µM. For COc1ccc(-c2noc(N3CCCC4(CN(c5ccnc(C)c5)C4)C3)n2)cc1OC [Compound 145], the IC50 was 4.7 µM. In the case of Cc1cc(N2CC3(CCCN(c4nc(C5CC5)no4)C3)C2)ccn1 [Compound 146], the IC50 is reported as ≥ 50 µM. Work on Cc1cc(N2CC3(CCCN(c4nc(-c5cccc(Cl)c5)no4)C3)C2)ccn1 [Compound 147] yielded an IC50 of 0.263 µM. With Cc1cc(N2CC3(CCCN(c4nc(-c5ccccc5Cl)no4)C3)C2)ccn1 [Compound 148] the IC50 was ≥ 50 µM. For COc1cc(OC)cc(-c2noc(N3CC4(CCC3=O)CCN(c3ccnc(C)c3)CC4)n2)c1 [Compound 150], the IC50 was 0.066 µM. Molecule COc1cccc(-c2noc(N3CC4(CCC3=O)CCN(c3ccnc(C)c3)CC4)n2)c1 [Compound 153, 2-(3-(3-methoxyphenyl)-1,2,4-oxadiazol-5-yl)-9-(2-methylpyridin-4-yl)-2,9-diazaspiro[5.5]undecan-3-one] has an IC50 of 44.8 µM. With Cc1cc(NC2CC3(CCN(c4nc(-c5cc(Cl)cc(Cl)c5)no4)C3)C2)ccn1 (centres unmarked) [Compound 154, 6-(3-(3,5-dichlorophenyl)-1,2,4-oxadiazol-5-yl)-N-(2-methylpyridin-4-yl)-6-azaspiro[3.4]octan-2-amine] the IC50 was 3.45 µM. With Cc1cc(NC2CC3(CCN(c4nc(-c5cc(Cl)cc(Cl)c5)no4)C3)C2)ccn1 (centres unmarked) [Compound 155] the IC50 was 3.46 µM. Cc1cc(NC2CC23CCN(c2nc(-c4cc(Cl)cc(Cl)c4)no2)C3)ccn1 (centres unmarked) [Compound 156] showed an IC50 of 16 µM. Cc1cc(NC2CC23CCN(c2nc(-c4cc(Cl)cc(Cl)c4)no2)C3)ccn1 (centres unmarked) [Compound 157] gave an IC50 of 31 µM. Molecule COc1cc(OC)cc(-c2noc(N3CCC4(CC5CCC(C4)N5c4ccnc(C)c4)C3)n2)c1 (centres unmarked) [Compound 158] has an IC50 of 3.81 µM. COc1cc(OC)cc(-c2noc(N3CCO[C@]4(C[C@H]5CC[C@@H](C4)N5c4ccnc(C)c4)C3)n2)c1 [Compound 160] was tested, and the IC50 was 0.35 µM. Molecule COc1cc(OC)cc(-c2noc(N3CCN(C)C4(CCN(c5ccnc(C)c5)CC4)C3)n2)c1 [Compound 161] has an IC50 of 0.049 µM. COc1cc(OC)cc(-c2nnc(N3CCN(C)C4(CCN(c5ccnc(C)c5)CC4)C3)o2)c1 [Compound 162] showed an IC50 of 0.47 µM. COc1cc(OC)cc(-c2noc(N3CC(C)(C)OC4(CN(c5ccnc(C)c5)C4)C3)n2)c1 [Compound 163] showed an IC50 of 3.08 µM.

— patent US20190374526A1, “Substituted Heterocyclic Compounds as Inhibitors of PRDM9” (Merck Sharp & Dohme Corp., priority 2018, published 2019)
